Activity calls are given as the source filed them.
Experiments:
[1] = ADAM10 inhibitors, peptide cleavage, dose response, biochemical, QFRET (AID 743254);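 also: ADAM10 enzyme with the DM2 quenched FRET peptide as substrate; EDANS fluorescence gain as the protease cuts the substrate; inhibitor potency against ADAM10 proteolytic activity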
[2] = target: T1, Disintegrin and metalloproteinase domain-containing protein 17 (Homo sapiens, UniProt P78536); assay: ADAM17 protease inhibitors, dose response, counter-screen for ADAM10 exosite inhibitor project, biochemical, quenched FRET substrate (AID 743253)
T1 sequence (P78536 whole entry, the tested form may be a part): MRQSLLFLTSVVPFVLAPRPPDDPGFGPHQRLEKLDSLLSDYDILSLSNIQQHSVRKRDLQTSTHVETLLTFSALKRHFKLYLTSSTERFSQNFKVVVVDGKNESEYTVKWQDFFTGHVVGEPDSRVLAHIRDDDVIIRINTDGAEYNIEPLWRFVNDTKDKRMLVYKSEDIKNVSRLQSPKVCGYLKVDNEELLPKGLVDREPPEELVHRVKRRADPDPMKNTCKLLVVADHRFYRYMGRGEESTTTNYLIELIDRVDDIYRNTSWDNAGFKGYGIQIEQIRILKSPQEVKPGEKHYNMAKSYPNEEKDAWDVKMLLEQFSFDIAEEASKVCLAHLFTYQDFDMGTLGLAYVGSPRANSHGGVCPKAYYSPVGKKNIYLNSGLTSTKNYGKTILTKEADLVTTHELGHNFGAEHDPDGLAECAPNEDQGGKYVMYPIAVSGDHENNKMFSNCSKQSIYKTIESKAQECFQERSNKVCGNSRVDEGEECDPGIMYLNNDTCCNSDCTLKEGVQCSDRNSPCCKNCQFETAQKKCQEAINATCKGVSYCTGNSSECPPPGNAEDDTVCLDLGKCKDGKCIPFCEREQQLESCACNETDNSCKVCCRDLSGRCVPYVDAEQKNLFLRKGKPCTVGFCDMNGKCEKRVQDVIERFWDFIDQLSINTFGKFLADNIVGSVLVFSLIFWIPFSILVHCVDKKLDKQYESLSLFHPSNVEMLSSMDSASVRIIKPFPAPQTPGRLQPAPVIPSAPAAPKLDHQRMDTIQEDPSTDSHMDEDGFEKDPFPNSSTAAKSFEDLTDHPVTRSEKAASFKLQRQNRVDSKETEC

[3] = A cytotoxicity screen of small molecule inhibitors of the PhoP region in Salmonella typhi identified in the primary screen. [Related pubchem assays: 1850, 1864, 1985 ]; format: functional
[4] = target: Luciferin 4-monooxygenase (Photinus pyralis, UniProt P08659); assay: Counter Screen for Luciferase-based Assay Positives. [Related pubchem assays: 620, 618, 411 ]
Chain of Luciferin 4-monooxygenase (P08659 whole entry): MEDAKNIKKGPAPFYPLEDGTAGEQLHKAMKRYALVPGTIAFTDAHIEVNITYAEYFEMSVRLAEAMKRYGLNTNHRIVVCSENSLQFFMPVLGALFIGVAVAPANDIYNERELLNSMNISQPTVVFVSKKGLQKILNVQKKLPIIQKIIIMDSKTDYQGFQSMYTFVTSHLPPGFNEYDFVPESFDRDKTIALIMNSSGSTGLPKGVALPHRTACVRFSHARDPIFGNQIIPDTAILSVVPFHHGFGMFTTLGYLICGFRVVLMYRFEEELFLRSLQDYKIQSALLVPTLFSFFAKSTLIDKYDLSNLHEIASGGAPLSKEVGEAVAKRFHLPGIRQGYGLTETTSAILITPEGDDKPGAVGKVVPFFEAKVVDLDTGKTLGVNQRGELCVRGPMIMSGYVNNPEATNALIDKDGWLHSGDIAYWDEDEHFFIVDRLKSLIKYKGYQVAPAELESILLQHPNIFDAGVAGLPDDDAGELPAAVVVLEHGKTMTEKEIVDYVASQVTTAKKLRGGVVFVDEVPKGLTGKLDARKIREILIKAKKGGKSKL

[5] = tested on: HT-1080; assay: cytotoxicity in HT1080 fibrosarcoma cells, cell-based, fluorescence readout (AID 620); format: functional; settings: Homo sapiens
[6] = cytotoxicity toward NIH3T3 fibroblasts, dose response, counter-screen, cell-based, ATP luminescence, mouse fibroblasts (AID 2010); format: functional;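 also: cells exposed to compound for about 90 hours before reading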
[7] = inhibitors of intracellular T. cruzi replication, confirmation, NIH3T3 host cells, beta-gal luminescence (AID 2044); format: functional, cell-based;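 also: intracellular parasites grown in NIH/3T3 mouse fibroblasts as host cells; luminescent beta-galactosidase reporter signal from transgenic T. cruzi replicating inside host cells; inhibitors lower the luminescence signal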
[8] = cells
[9] = target: Prothrombin (Homo sapiens, UniProt P00734); assay: Thrombin 1536 HTS Dose Response Confirmation. [Related pubchem assays: 1046 (Thrombin 1536 HTS; hits were confirmed in this assay)]; format: functional
[10] = target: Paired box protein Pax-8 (Homo sapiens, UniProt Q06710); assay: inhibitors of PAX8-driven TPO luciferase reporter, dose response, RMG-I cells, cherry-pick (AID 687027); format: functional, cell-based;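 also: luciferase reporter driven by Pax8 target thyroperoxidase promoter measured by SteadyGlo luminescence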
Chain of Paired box protein Pax-8 (Q06710 whole entry): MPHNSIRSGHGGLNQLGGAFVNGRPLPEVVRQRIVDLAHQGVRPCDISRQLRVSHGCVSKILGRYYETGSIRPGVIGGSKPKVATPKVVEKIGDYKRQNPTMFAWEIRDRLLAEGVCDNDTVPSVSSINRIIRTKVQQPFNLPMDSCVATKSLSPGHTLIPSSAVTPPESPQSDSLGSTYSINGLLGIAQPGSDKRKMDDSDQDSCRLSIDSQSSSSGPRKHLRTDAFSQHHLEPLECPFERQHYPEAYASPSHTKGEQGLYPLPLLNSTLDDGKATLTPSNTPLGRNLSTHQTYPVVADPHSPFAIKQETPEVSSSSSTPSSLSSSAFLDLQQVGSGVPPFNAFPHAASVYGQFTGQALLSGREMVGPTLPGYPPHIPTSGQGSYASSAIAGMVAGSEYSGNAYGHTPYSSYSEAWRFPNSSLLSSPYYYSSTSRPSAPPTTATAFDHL

[11] = HEK293T cytotoxicity, dose response, cytotoxicity control for miR-122 modulator project, cell-based, inhibitor set, cherry-pick, set 2 (AID 720697); format: functional
[12] = non-specific cell cytotoxicity, dose response, cytotoxicity control for PAX8 inhibitor project, plate reader, dry powder samples (AID 743021); format: functional, cell-based
[13] = ADAM10 protease inhibitors, dose response, selectivity assay for ADAM17 exosite inhibitor project, biochemical, FRET peptide substrate, recombinant human ADAM10 (AID 743259);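 also: ADAM10 enzyme cleaving a FRET peptide substrate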
[14] = target: T1, Disintegrin and metalloproteinase domain-containing protein 17; assay: exosite inhibitors of ADAM17, dose response, biochemical (AID 743260)
[15] = target: Cytochrome P450 3A4 (Homo sapiens, UniProt P08684); settings: Potency;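 also: confirmatory qHTS run detecting inhibitors and substrates of CYP3A4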
Chain of Cytochrome P450 3A4 (P08684 whole entry): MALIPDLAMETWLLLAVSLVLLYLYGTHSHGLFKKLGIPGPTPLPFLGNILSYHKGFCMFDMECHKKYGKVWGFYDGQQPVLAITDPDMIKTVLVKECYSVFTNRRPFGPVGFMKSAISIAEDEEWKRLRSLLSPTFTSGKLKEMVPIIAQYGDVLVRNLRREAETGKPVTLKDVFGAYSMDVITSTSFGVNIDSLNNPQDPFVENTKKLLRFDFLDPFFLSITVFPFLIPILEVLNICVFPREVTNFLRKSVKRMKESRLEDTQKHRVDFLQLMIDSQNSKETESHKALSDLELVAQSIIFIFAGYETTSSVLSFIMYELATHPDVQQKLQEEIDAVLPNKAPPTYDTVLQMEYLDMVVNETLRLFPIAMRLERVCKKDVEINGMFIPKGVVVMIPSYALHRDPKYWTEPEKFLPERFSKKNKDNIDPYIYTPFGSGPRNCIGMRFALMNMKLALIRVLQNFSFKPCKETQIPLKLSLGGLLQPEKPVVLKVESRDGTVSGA

Cc1ccccc1CN(c1ccc(C(=O)Nc2ccccc2C(=O)NCc2ccco2)cc1)S(C)(=O)=O
IC50 [1]: > 69.5 µM (inactive) | IC50 [2]: > 69.5 µM (inactive)

Cc1nc(C)c(-c2ccc(SCc3ccccc3C)nn2)s1
EC50 [3]: > 50 µM (active)

COc1nc(C)ccc1-c1noc(-c2ccco2)n1
EC50 [4]: 1.78 µM (active) | EC50 [5]: > 50 µM (not active)

CC(C)N(CCn1c(SCC(=O)N2CC(=O)Nc3ccccc32)nc2ccccc2c1=O)C(C)C
EC50 [6]: > 60 µM (not active) | EC50 [7]: < 0.1 µM (active) | EC50 [8]: 0.061 µM (active)

O=c1oc(-c2ccccc2[N+](=O)[O-])nc2ccccc12
IC50 [9]: 0.116 µM (active)

CCOc1ccc(CCN2C(=S)N([C@@H](Cc3ccc(O)cc3)CN3CCC[C@@H]3CN3C(=S)NC[C@@H]3CC(C)C)C[C@@H]2Cc2ccc(O)cc2)cc1
IC50 [1]: 12.4 µM (inactive) | IC50 [2]: > 69.5 µM (inactive) | AC50 [10]: 8.84 µM (active)

CCc1nc2sc(C)c(C)c2c(=O)n1CCO
AC50 [11]: 8.36 µM (active)

COC(=O)C1=C(C)N(Cc2cccc(C(F)(F)F)c2)C(NCC2CC2)=NC1c1cccc(C(F)(F)F)c1 (stereo unspecified)
AC50 [10]: 17.2 µM (active) | AC50 [12]: 20.8 µM (active)

Cc1sc2nc(SCC(=O)c3ccc(O)c(O)c3)n(Cc3ccco3)c(=O)c2c1C
IC50 [13]: > 69.5 µM (inactive) | IC50 [14]: > 69.5 µM (inactive)

COCC(=O)N(C)C[C@@H]1[C@H](c2ccc(-c3ccccc3)cc2)[C@@H](CO)N1C(C)=O
AC50 [11]: 9.74 µM (active)

COc1ccc(C2C(=O)c3ccccc3C2=O)cc1OC
IC50 [9]: > 50 µM (not active)

O=C(NC1CCCCC1)NC1CCCCC1 [1,3-DICYCLOHEXYLUREA]
AC50 [15]: 3.16 µM (inconclusive)

CC1(C)CC2C1CCC1(C)OC2(C)CCC1O (stereo unspecified) [3,7-EPOXYCARYOPHYLLAN-6-OL]
AC50 [15]: 25.1 µM (inconclusive)

— ChEMBL document CHEMBL1201862, “PubChem BioAssay data set” (2004)
